Results reported in article PMC7366314 (ACS chemical biology, 2020).

What was measured:
[1] = Ex vivo mouse plasma stability testing; assay type: in vitro ADME; conditions: for plasma half-life, fold greater than the natural GLP-1 peptide: ex vivo mouse plasma, 10 μM, 37°C, LC/MS/MS
[2] = system: B6 mice; assay: Glucose tolerance test; assay type: in vivo, mouse; conditions: B6 mice fasted overnight, 10 nmol/kg IP, glucose 2 g/kg IP 30 min later
[3] = system: Leprdb mice; assay: Anti-hyperglycemic effect in diabetic Leprdb; assay type: in vivo, mouse; conditions: single IP injection 10 nmol/kg
[4] = molecular target: proteinase K (Parengyodontium album, UniProt P06873); assay: Peptide proteolysis assay with proteinase K, intact peptide by LC/MS; conditions: 50 mM Tris HCl pH 7.4, LC/MS
proteinase K, sequence (P06873 106-384): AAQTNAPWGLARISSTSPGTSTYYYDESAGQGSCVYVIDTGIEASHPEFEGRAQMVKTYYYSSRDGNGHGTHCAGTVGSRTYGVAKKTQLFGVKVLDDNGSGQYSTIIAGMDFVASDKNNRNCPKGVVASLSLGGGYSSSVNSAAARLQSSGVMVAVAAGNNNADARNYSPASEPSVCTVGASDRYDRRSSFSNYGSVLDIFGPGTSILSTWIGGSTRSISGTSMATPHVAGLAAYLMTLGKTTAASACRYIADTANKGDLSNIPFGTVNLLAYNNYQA

Row | Compound | plasma half-life, fold greater than the natural GLP-1 peptide [1] | half-life at 10 µM ([1]; mouse, plasma (freshly drawn, lithium heparin)) | time to euglycemia after the glucose bolus (GTT) [2] | initial reduction in serum glucose ([3]; 15 min p=0.0032, 30 min p=0.0001 vs semaglutide) | fold reduction in glucose level compared to vehicle and wild-type GLP-1 ([3]; sustained for 12 hours, n=8) | fold improvement of proteinase K half-life compared to control (wild-type) GLP-1 [4]
1 | CC[C@H](C)[C@@H]1NC(=O)[C@H](Cc2ccccc2)NC(=O)[C@H](CCC(=O)O)NC(=O)[C@H](CCCCN)NC(=O)[C@H](C)NC(=O)[C@H](C)NC(=O)[C@@]2(CCCC=CCCCCCC[C@@](C)(NC(=O)[C@H](CC(=O)O)NC(=O)[C@H](CO)NC(=O)[C@@H](NC(=O)[C@H](Cc3ccccc3)NC(=O)[C@@H](NC(=O)CNC(=O)[C@H](CCC(=O)O)NC(=O)C(C)(C)NC(=O)[C@@H](N)Cc3c[nH]cn3)[C@@H](C)O)[C@@H](C)O)C(=O)N[C@@H](CO)C(=O)N[C@@H](CO)C(=O)N[C@@H](Cc3ccc(O)cc3)C(=O)N[C@@H](CC(C)C)C(=O)N[C@@H](CCC(=O)O)C(=O)NCC(=O)N2)CCCC=CCCCCCC[C@@](C)(C(=O)N[C@@H](Cc2c[nH]c3ccccc23)C(=O)N[C@@H](CC(C)C)C(=O)N[C@H](C(=O)N[C@@H](CCCCN)C(=O)NCC(=O)N[C@@H](CCCNC(=N)N)C(N)=O)C(C)C)NC1=O [SAH-GLP-1-A8J(16,23,30)] | 23 fold | 5.33 h | ≤ 60 min | more rapid, initial reduction in serum glucose compared to semaglutide | 2–2.5 fold | over 24 fold
2 | CC[C@H](C)[C@H](NC(=O)[C@H](Cc1ccccc1)NC(=O)[C@H](CCC(=O)O)NC(=O)[C@H](CCCCNC(=O)COCCOCCNC(=O)COCCOCCNC(=O)CC[C@H](NC(=O)CCCCCCCCCCCCCCCCC(=O)O)C(=O)O)NC(=O)[C@H](C)NC(=O)[C@H](C)NC(=O)[C@H](CCC(N)=O)NC(=O)CNC(=O)[C@H](CCC(=O)O)NC(=O)[C@H](CC(C)C)NC(=O)[C@H](Cc1ccc(O)cc1)NC(=O)[C@H](CO)NC(=O)[C@H](CO)NC(=O)[C@@H](NC(=O)[C@H](CC(=O)O)NC(=O)[C@H](CO)NC(=O)[C@@H](NC(=O)[C@H](Cc1ccccc1)NC(=O)[C@@H](NC(=O)CNC(=O)[C@H](CCC(=O)O)NC(=O)C(C)(C)NC(=O)[C@@H](N)Cc1cnc[nH]1)[C@@H](C)O)[C@@H](C)O)C(C)C)C(=O)N[C@@H](C)C(=O)N[C@@H](Cc1c[nH]c2ccccc12)C(=O)N[C@@H](CC(C)C)C(=O)N[C@H](C(=O)N[C@@H](CCCNC(=N)N)C(=O)NCC(=O)N[C@@H](CCCNC(=N)N)C(=O)NCC(=O)O)C(C)C [semaglutide, reference compound] | 12 fold |  |  |  |  | 
